Read-outs that look alike come from different tables or passages of the source.
Test system: MDD patients carrying the indicated conditions
Settings: Phase I, with SSRI
Experimental: Folate levels are classified as either low (<=2.5 ng/ml) or normal; and homocysteine levels as either normal or elevated (>=[…]). The presence or absence of at least one […] allele for the MTHFR gene are entered as a dichotomous variable (present or absent). […] Using folate as an example predicator, the presence or absence of a low serum-folate level along with treatment assignment can be entered in a 2×2, factorial ANOVA, using depression improvement scores (baseline minus endpoint HAM-D-17 scores) as the dependant variable. […] Similar analyses (i.e. separate 2×2 ANOVA's) can be performed substituting the presence of low folate levels for the presence of other predictors as described herein. Similarly, the effect of other predictors can be indicated by the interaction term representing the potential modulating influence of those variables.
Particularly, specific genetic and biomarkers that were assessed include the following: • (a) BMI calculation of at least about 30 kg/m^2; • (b) an expression ratio of SAM/SAH smaller than 2.8 (e.g., 2.71) as measured in a plasma sample; • (c) a level of 4-HNE no less than 3.28 μg/mL (as measured in a plasma sample); • (d) presence of rare variants CT or TT at position 677 of SEQ ID NO: 1 corresponding to a portion of a genomic nucleic acid sequence of methylenetetrahydrofolate reductase (MTHFR) (abbreviated as “MTHFR 677” below); • (e) presence of rare variants AG or GG at position 2756 of SEQ ID NO: 2 corresponding to a portion of genomic nucleic acid sequence of methionine synthase (MTR) (abbreviated as “MTR 2756” below); and • (f) presence of rare variants AG or GG at position 66 of SEQ ID NO: 3 corresponding to a portion of genomic nucleic acid sequence of methionine synthase reductase (MTRR) (abbreviated as “MTRR 66” below).
The efficacy effect is determined by measuring the mean change in the HAMD-17 score and HAMD-28 score by the end of Phase I and Phase II, as compared to the baseline.

## CN1c2c(nc(N)[nH]c2=O)NC[C@@H]1CNc1ccc(C(=O)N[C@@H](CCC(=O)O)C(=O)O)cc1 [6(S)-5-MTHF, 6(S)-5-methyltetrahydrofolate]
25 =< BMI < 30 kg/m^2 (18, 10)
  Effect, change in HAMD-17 score: 2.600
  Effect, change in HAMD-28 score: 2.602
BMI < 25 (14, 7)
  Effect, change in HAMD-17 score: 1.576
  Effect, change in HAMD-28 score: 0.909
BMI < 30 kg/m^2 and HNE-His < median (19, 9)
  Effect, change in HAMD-17 score: 3.771
BMI < 30 kg/m^2 and HNE-His < median
  Effect, change in HAMD-28 score: 4.606
BMI < 30 kg/m^2 and SAM/SAH >= median (16,8)
  Effect, change in HAMD-17 score: 4.333
BMI < 30 kg/m^2 and SAM/SAH >= median
  Effect, change in HAMD-28 score: 4.333
BMI >= 30 kg/m^2 (40,21)
  Effect, change in HAMD-17 score: −6.414
  Effect, change in HAMD-28 score: −6.677
BMI >= 30 kg/m^2 and HNE-His >= median (23, 11)
  Effect, change in HAMD-17 score: −6.569
BMI >= 30 kg/m^2 and HNE-His >= median
  Effect, change in HAMD-28 score: −6.510
BMI >= 30 kg/m^2 and SAM/SAH < median (21,9)
  Effect, change in HAMD-17 score: −5.611
BMI >= 30 kg/m^2 and SAM/SAH < median = 2.71 (plasma sample)
  Effect, change in HAMD-28 score: −6.306
MTHFR 677 CC and BMI < 30 kg/m^2 (17,8)
  Effect, change in HAMD-17 score: 4.500
MTHFR 677 CC and BMI < 30 kg/m^2
  Effect, change in HAMD-28 score: 2.769
MTHFR 677 CC and HNE-His < median (20,11)
  Effect, change in HAMD-17 score: −1.471
MTHFR 677 CC and HNE-His < median = 3.28 (plasma sample)
  Effect, change in HAMD-28 score: −2.821
MTHFR 677 CC and MTR 2756 AA (29,13)
  Effect, change in HAMD-17 score: −0.700
MTHFR 677 CC and MTR 2756 AA
  Effect, change in HAMD-28 score: −0.192
MTHFR 677 CT or TT and BMI >= 30 kg/m^2 (13,6)
  Effect, change in HAMD-17 score: −8.738
MTHFR 677 CT or TT and BMI >= 30 kg/m^2
  Effect, change in HAMD-28 score: −9.857
MTHFR 677 CT or TT and HNE-His >= median (11,6)
  Effect, change in HAMD-17 score: −7.143
MTHFR 677 CT or TT and HNE-His >= median
  Effect, change in HAMD-28 score: −6.929
MTHFR 677 CT or TT and MTR 2756 AG or GG (8,4)
  Effect, change in HAMD-17 score: −13.47
MTHFR 677 CT or TT and MTR 2756 AG or GG
  Effect, change in HAMD-28 score: −18.00
MTR 2756 AA (45,21)
  Effect, change in HAMD-17 score: −0.621
MTR 2756 AA and BMI < 30 kg/m^2 (17,7)
  Effect, change in HAMD-17 score: 4.476
MTR 2756 AA and BMI < 30 kg/m^2
  Effect, change in HAMD-28 score: 5.524
MTR 2756 AA and HNE-His < median (26,13)
  Effect, change in HAMD-17 score: 0.306
MTR 2756 AA and HNE-His < median
  Effect, change in HAMD-28 score: 0.639
MTR 2756 AA and MTRR 66 AA (11,5)
  Effect, change in HAMD-17 score: 3.125
MTR 2756 AA and MTRR 66 AA and HNE-His < median (6,4)
  Effect, change in HAMD-17 score: 3.000
MTR 2756 AA and MTRR 66 AA and HNE-His < median = 3.28 (plasma sample)
  Effect, change in HAMD-28 score: 4.200
MTR 2756 AA and MTRR 66 AA and SAM/SAH >= median (6,3)
  Effect, change in HAMD-17 score: −0.400
MTR 2756 AA and MTRR 66 AA and SAM/SAH >= median
  Effect, change in HAMD-28 score: −1.000
MTR 2756 AA and MTRR 66 AA
  Effect, change in HAMD-28 score: 5.000
MTR 2756 AA and SAM/SAH >= median (24,12)
  Effect, change in HAMD-17 score: −1.556
MTR 2756 AA and SAM/SAH >= median
  Effect, change in HAMD-28 score: −1.278
MTR 2756 AA
  Effect, change in HAMD-28 score: 0.409
MTR 2756 AG or GG and BMI >= 30 kg/m^2 (10,5)
  Effect, change in HAMD-17 score: −12.905
MTR 2756 AG or GG and BMI >= 30 kg/m^2
  Effect, change in HAMD-28 score: −18.762
MTR 2756 AG or GG and HNE-His >= median (13,7)
  Effect, change in HAMD-17 score: −7.125
MTR 2756 AG or GG and HNE-His >= median = 3.28 (plasma sample)
  Effect, change in HAMD-28 score: −9.950
MTR 2756 AG or GG and MTRR 66 AG or GG (15,7)
  Effect, change in HAMD-17 score: −6.900
MTR 2756 AG or GG and MTRR 66 AG or GG and BMI >= 30 kg/m^2 (8,4)
  Effect, change in HAMD-17 score: −13.667
MTR 2756 AG or GG and MTRR 66 AG or GG and BMI >= 30 kg/m^2
  Effect, change in HAMD-28 score: −18.833
MTR 2756 AG or GG and MTRR 66 AG or GG and HNE-His >= median (10,4)
  Effect, change in HAMD-17 score: −7.200
MTR 2756 AG or GG and MTRR 66 AG or GG and HNE-His >= median
  Effect, change in HAMD-28 score: −9.800
MTR 2756 AG or GG and MTRR 66 AG or GG and SAM/SAH < median (8,3)
  Effect, change in HAMD-17 score: −9.000
MTR 2756 AG or GG and MTRR 66 AG or GG and SAM/SAH < median = 2.71 (plasma sample)
  Effect, change in HAMD-28 score: −12.741
MTR 2756 AG or GG and MTRR 66 AG or GG
  Effect, change in HAMD-28 score: −9.996
MTR 2756 AG or GG and SAM/SAH < median (10,4)
  Effect, change in HAMD-17 score: −9.800
MTR 2756 AG or GG and SAM/SAH < median = 2.71 (plasma sample)
  Effect, change in HAMD-28 score: −14.993
MTR 2756 AG/GG (20,11)
  Effect, change in HAMD-17 score: −7.143
MTR 2756 AG/GG
  Effect, change in HAMD-28 score: −10.926
